Target: T1, Fatty-acid amide hydrolase 1 (Rattus norvegicus) (UniProt P97612)
T1 sequence (whole entry): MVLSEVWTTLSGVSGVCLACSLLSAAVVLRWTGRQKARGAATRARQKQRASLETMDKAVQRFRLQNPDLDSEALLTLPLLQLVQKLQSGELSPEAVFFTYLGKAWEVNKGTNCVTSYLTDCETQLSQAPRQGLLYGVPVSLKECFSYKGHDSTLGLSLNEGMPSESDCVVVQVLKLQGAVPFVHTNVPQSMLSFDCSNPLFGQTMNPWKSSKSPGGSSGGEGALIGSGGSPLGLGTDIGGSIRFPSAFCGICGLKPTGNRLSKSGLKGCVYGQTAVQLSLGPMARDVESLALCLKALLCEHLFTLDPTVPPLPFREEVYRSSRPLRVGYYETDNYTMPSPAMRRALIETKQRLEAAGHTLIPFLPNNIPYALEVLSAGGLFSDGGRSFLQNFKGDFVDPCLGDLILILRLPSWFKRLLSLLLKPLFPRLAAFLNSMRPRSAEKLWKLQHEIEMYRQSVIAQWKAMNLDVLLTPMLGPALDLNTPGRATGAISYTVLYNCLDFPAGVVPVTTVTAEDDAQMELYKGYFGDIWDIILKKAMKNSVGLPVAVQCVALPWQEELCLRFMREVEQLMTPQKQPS
Test: Inhibition of FAAH in rat brain homogenate using [3H]AEA as substrate at 100 uM incubated for 10 mins by liquid scintillation spectroscopy relative to control
Type: tissue-based

Row | Structure (SMILES) | inhibition
1 | CC(C)Cc1ccc(C(C)C(=O)NCc2c(Cl)cccc2Cl)cc1 (stereo unspecified) | 19%
2 | Cc1ccccc1N1CCN(C(=O)C(C)c2ccc(CC(C)C)cc2)CC1 (stereo unspecified) | 33%
3 | COc1cccc(N2CCN(C(=O)C(C)c3ccc(CC(C)C)cc3)CC2)c1 (stereo unspecified) | 41%

System: not listed separately
Test: In vivo inhibition of FAAH in NMRI mouse assessed as remaining enzymatic activity in brain at 30 mg/kg, po measured after 1 hr by AEA-substrate based scintillation counting method relative to control
Type: functional

Row | Structure (SMILES) | Activity
4 | Cl.Cl.O=c1oc(Oc2ccc(F)cc2F)nn1-c1ccc(OCCN2CCNCC2)cc1 | 74%
5 | O=c1oc(Oc2ccc(F)cc2F)nn1-c1cccc(O)c1 | 94%
6 | O=c1oc(Oc2ccc(F)cc2F)nn1-c1ccc(O)cc1 | 86%
7 | Cl.Cl.O=c1oc(Oc2ccc(F)cc2F)nn1-c1ccc(OCCCN2CCNCC2)cc1 | 85%
8 | Cl.O=c1oc(Oc2ccc(F)cc2F)nn1-c1ccc(OCCN2CCCC2)cc1 | 10%
9 | Cl.O=c1oc(Oc2ccc(F)cc2F)nn1-c1ccc(OCCN2CCCCC2)cc1 | 20%

Target: T2, Fatty-acid amide hydrolase 1 (Rattus norvegicus, UniProt P97612)
T2 sequence (P97612 whole entry): T1 sequence (whole entry)
Test: Inhibition of rat FAAH using [3H]-AEA as substrate by liquid chromatography-mass spectrometry

Row | Structure (SMILES) | IC50
10 | CC(=O)Oc1cn(C(=O)NCCCc2ccc(-c3ccccc3)cc2)c(=O)[nH]c1=O | 0.3 nM
11 | CCCCCCNC(=O)n1cc(F)c(=O)[nH]c1=O [CARMOFUR] | 25 nM
12 | CCCCCCNC(=O)n1ccc(=O)[nH]c1=O | 492 nM
13 | CCCCCCNC(=O)n1cc(OC(C)=O)c(=O)[nH]c1=O | 25 nM
14 | CC(=O)Oc1cn(C(=O)NCCCCCCCc2ccccc2)c(=O)[nH]c1=O | 3 nM
15 | CC(=O)Oc1cn(C(=O)NCCCCc2ccc(-c3ccccc3)cc2)c(=O)[nH]c1=O | 0.8 nM
16 | CCCCCCNC(=O)n1cc(C#N)c(=O)[nH]c1=O | 25 nM

Target: T2, Fatty-acid amide hydrolase 1
Test: Inhibition of FAAH in rat brain homogenate using [3H]AEA as substrate incubated for 10 mins by liquid scintillation spectroscopy
Type: tissue-based

Row | Structure (SMILES) | IC50
17 | COc1ccc(N2CCN(C(=O)C(C)c3ccc(CC(C)C)cc3)CC2)cc1 (stereo unspecified) | 4500 nM
18 | CC(C)Cc1ccc(C(C)C(=O)N2CCN(c3ccc(Cl)cc3)CC2)cc1 (stereo unspecified) | 1700 nM
19 | COc1ccc(CNC(=O)C(C)c2ccc(CC(C)C)cc2)cc1 (stereo unspecified) | 43000 nM
20 | COc1ccccc1CNC(=O)C(C)c1ccc(CC(C)C)cc1 (stereo unspecified) | 18000 nM
21 | CC(C)Cc1ccc(C(C)C(=O)NCc2ccc(C(C)(C)C)cc2)cc1 (stereo unspecified) | 25000 nM
22 | CC(C)Cc1ccc(C(C)C(=O)NCc2ccccc2)cc1 (stereo unspecified) | 21000 nM
23 | CC(C)Cc1ccc(C(C)C(=O)N2CCN(c3cccc(Cl)c3)CC2)cc1 (stereo unspecified) | 1700 nM
24 | Cc1cccc(N2CCN(C(=O)C(C)c3ccc(CC(C)C)cc3)CC2)c1C (stereo unspecified) | 1700 nM
25 | CC(C)Cc1ccc(C(C)C(=O)N2CCN(c3ccc(Cl)c(Cl)c3)CC2)cc1 (stereo unspecified) | 16000 nM
26 | COc1ccc(CNC(=O)C(C)c2ccc(CC(C)C)cc2)cc1O (stereo unspecified) | 18000 nM
27 | CC(C)Cc1ccc(C(C)C(=O)N2CCN(c3ccccc3)CC2)cc1 (stereo unspecified) | 4700 nM
28 | CC(C)Cc1ccc(C(C)C(=O)NCc2ccc(F)cc2)cc1 (stereo unspecified) | 27000 nM
29 | Cc1cccc(N2CCN(C(=O)C(C)c3ccc(CC(C)C)cc3)CC2)c1 (stereo unspecified) | 16000 nM
30 | CC(C)Cc1ccc(C(C)C(=O)NCc2ccc(Cl)cc2)cc1 (stereo unspecified) | 27000 nM
31 | CC(C)Cc1ccc(C(C)C(=O)NCc2cccc(C(F)(F)F)c2)cc1 (stereo unspecified) | 28000 nM
32 | CC(C)Cc1ccc(C(C)C(=O)NCc2ccc(Cl)c(Cl)c2)cc1 (stereo unspecified) | 36000 nM
33 | CC(C)Cc1ccc(C(C)C(=O)NCc2ccc(C(F)(F)F)cc2)cc1 (stereo unspecified) | 51000 nM

Target: T2, Fatty-acid amide hydrolase 1
Test: Inhibition of FAAH in Sprague-Dawley rat brain homogenate using arachidonoyl-ethanolamide and anandamide [ethanolamine-1-3H] as substrate pre-incubated for 10 mins followed by substrate addition and measured after 30 mins by liquid scintillation counting method
Type: tissue-based

Row | Structure (SMILES) | IC50
34 | NC(=O)c1cccc(-c2cccc(OC(=O)NCCCN3CCN(c4cccc(Cl)c4Cl)CC3)c2)c1 | 0.1 nM

Target: T2, Fatty-acid amide hydrolase 1
Test: Inhibition of FAAH in rat brain microsomes using N-(2-hydroxyethyl)-4-pyren-1-ylbutanamide as substrate incubated for 45 mins by reverse-phase HPLC-based fluorescence assay

Row | Structure (SMILES) | IC50
35 | CC(=O)Nc1ccc2c(cnn2CC(=O)COc2ccc(Oc3ccccc3)cc2)c1 | 3900 nM
36 | O=C(COc1ccc(Oc2ccccc2)cc1)Cn1ncc2cc(NC(=O)Nc3ccccc3)ccc21 | 6000 nM
37 | O=C(COc1ccc(Oc2ccccc2)cc1)Cn1ncc2ccccc21 | 2600 nM
38 | O=C(COc1ccc(Oc2ccccc2)cc1)Cn1ncc2cc([N+](=O)[O-])ccc21 | 550 nM
39 | O=C(COc1ccc(Oc2ccccc2)cc1)Cn1ncc2cc(NC(=O)CO)ccc21 | 5400 nM
40 | O=C(COc1ccc(Oc2ccccc2)cc1)Cn1ncc2cc(NC(=O)Oc3ccccc3)ccc21 | 2100 nM
41 | O=C(COc1ccc(Oc2ccccc2)cc1)Cn1ncnn1 | 8 nM
42 | N#CNC(COc1ccc(Oc2ccccc2)cc1)Cn1ncnn1 (stereo unspecified) | 5300 nM
43 | O=C(COc1ccc(Oc2ccccc2)cc1)Cn1ncc2cc(NC(=O)NC3CCCCC3)ccc21 | 840 nM
44 | CS(=O)(=O)NC(=O)c1ccc2c(cnn2CC(=O)COc2ccc(Oc3ccccc3)cc2)c1 | 770 nM
45 | COCC(=O)Nc1ccc2c(cnn2CC(=O)COc2ccc(Oc3ccccc3)cc2)c1 | 6300 nM
46 | O=C(Cn1nnc2ccccc21)c1nc2cc(Oc3ccccc3)ccc2o1 | 10000 nM
47 | CCNC(=O)Nc1ccc2c(cnn2CC(=O)COc2ccc(Oc3ccccc3)cc2)c1 | 1600 nM
48 | O=C(COc1ccc(Oc2ccccc2)cc1)Cn1ncc2cc(C(=O)NS(=O)(=O)C(F)(F)F)ccc21 | 510 nM
49 | COC(=O)Nc1ccc2c(cnn2CC(=O)COc2ccc(Oc3ccccc3)cc2)c1 | 4000 nM
50 | O=C(COc1ccc(Oc2ccccc2)cc1)Cn1ncc2cc(C(=O)NS(=O)(=O)c3ccccc3)ccc21 | 4700 nM
51 | O=C(COc1ccc(Oc2ccccc2)cc1)Cn1ncc2cc(C(=O)O)ccc21 | 55 nM

Target: T2, Fatty-acid amide hydrolase 1
Test: Inhibition of FAAH in rat brain homogenate using [3H]AEA as substrate
Type: tissue-based

Row | Structure (SMILES) | IC50
52 | O=C(COc1ccccc1)Nc1cccc(-c2nc3ncccc3o2)c1 | 18000 nM
53 | O=C(COc1ccc(-c2ccccc2)cc1)Nc1ccc(-c2nc3ncccc3o2)cc1 | 350 nM
54 | O=C(COc1ccc(-c2ccccc2)cc1)Nc1ccccc1-c1nc2ncccc2[nH]1 | 1100 nM
55 | CCC/C=C/COCC(=O)Nc1cccc(-c2nc3cccnc3[nH]2)c1 | 73000 nM
56 | O=C(COc1ccc(-c2ccccc2)cc1)Nc1cccc(-c2nc3cccnc3[nH]2)c1 | 13000 nM
57 | O=C(COc1ccc(C2CCCCC2)cc1)Nc1cccc(-c2nc3ncccc3[nH]2)c1 | 47000 nM
58 | O=C(COc1ccc(C2CCCCC2)cc1)Nc1cccc(-c2nc3ncccc3o2)c1 | 2600 nM
59 | O=C(COc1ccc(-c2ccccc2)cc1)Nc1ccc(-c2nc3ncccc3[nH]2)cc1 | 620 nM
60 | O=C(COc1ccc(C2CCCCC2)cc1)Nc1ccccc1-c1nc2ncccc2[nH]1 | 650 nM
61 | CCC/C=C/COCC(=O)Nc1ccccc1-c1nc2ncccc2[nH]1 | 5500 nM
62 | CCCC/C=C/COCC(=O)Nc1ccc(-c2nc3ncccc3[nH]2)cc1 | 64000 nM
63 | CCC/C=C/COCC(=O)Nc1cccc(-c2nc3ncccc3o2)c1 | 17000 nM
64 | O=C(COc1ccc(C2CCCCC2)cc1)Nc1ccc(-c2nc3ncccc3[nH]2)cc1 | 1500 nM
65 | CC(C)c1ccc(OCC(=O)Nc2cccc(-c3nc4ncccc4o3)c2)cc1 | 2100 nM
66 | O=C(COc1ccc(-c2ccccc2)cc1)Nc1cccc(-c2nc3ncccc3o2)c1 | 630 nM

Target: T2, Fatty-acid amide hydrolase 1
Test: Inhibition of FAAH in rat brain homogenate using 2-arachidonoyl-[3H]-glycerol as substrate by scintillation counting method
Type: tissue-based

Row | Structure (SMILES) | IC50
67 | O=C(N1CCN(Cc2nc3cc(F)ccc3n3cccc23)CC1)n1nnc2ccccc21 | 23.2 nM
68 | Cc1ccc2c(nc(CNC3CCN(C(=O)n4nnc5ccccc54)CC3)c3cccn32)c1C | 25.1 nM
69 | O=C(N1CCN(Cc2nc3cc(F)ccc3n3cccc23)CC1)n1cncn1 | 20.7 nM
70 | O=C(N1CCN(Cc2nc3cc(Cl)ccc3n3cccc23)CC1)n1cncn1 | 25.1 nM
71 | O=C(N1CCC(NCc2nc3cc(F)ccc3n3cccc23)CC1)n1nnc2ccccc21 | 9.6 nM
72 | O=C(N1CCN(Cc2nc3cc(Cl)ccc3n3cccc23)CC1)n1nnc2ccccc21 | 35.8 nM
73 | O=C(N1CCN(Cc2nc3ccccc3n3cccc23)CC1)n1cncn1 | 37 nM
74 | Cc1ccc2c(nc(CN3CCN(C(=O)n4nnc5ccccc54)CC3)c3cccn32)c1C | 27.3 nM
75 | O=C(N1CCN(Cc2nc3ccccc3n3cccc23)CC1)n1nnc2ccccc21 | 23.6 nM
76 | Cc1ccc2c(nc(CN3CCN(C(=O)n4cncn4)CC3)c3cccn32)c1C | 32.4 nM

System: not listed separately
Test: In vivo inhibition of FAAH in NMRI mouse assessed as remaining enzymatic activity in liver at 30 mg/kg, po measured after 1 hr by AEA-substrate based scintillation counting method relative to control
Type: functional

Row | Structure (SMILES) | Activity
77 | Cl.Cl.O=c1oc(Oc2ccc(F)cc2F)nn1-c1ccc(OCCN2CCNCC2)cc1 | 5%
78 | O=c1oc(Oc2ccc(F)cc2F)nn1-c1cccc(O)c1 | 12%
79 | O=c1oc(Oc2ccc(F)cc2F)nn1-c1ccc(O)cc1 | 12%
80 | Cl.Cl.O=c1oc(Oc2ccc(F)cc2F)nn1-c1ccc(OCCCN2CCNCC2)cc1 | 8%
81 | Cl.O=c1oc(Oc2ccc(F)cc2F)nn1-c1ccc(OCCN2CCCC2)cc1 | 9%
82 | Cl.O=c1oc(Oc2ccc(F)cc2F)nn1-c1ccc(OCCN2CCCCC2)cc1 | 10%

Species on record: Rattus norvegicus
Test: Selectivity ratio of IC50 for rat NAAA using d4-PEA as substrate to IC50 for rat FAAH using [3H]-AEA as substrate

Row | Structure (SMILES) | Ratio IC50
83 | CC(=O)Oc1cn(C(=O)NCCCc2ccc(-c3ccccc3)cc2)c(=O)[nH]c1=O | > 10000
84 | CCCCCCNC(=O)n1ccc(=O)[nH]c1=O | 2
85 | CC(=O)Oc1cn(C(=O)NCCCCCCCc2ccccc2)c(=O)[nH]c1=O | 3130
86 | CC(=O)Oc1cn(C(=O)NCCCCc2ccc(-c3ccccc3)cc2)c(=O)[nH]c1=O | > 10000
